Assays:
VEGFR2, unphosphorylated = VEGFR2, unphosphorylated (Homo sapiens (Human), UniProt P35968); experiment: VEGFR ADP GLO Assay; type: biochemical
[1] = molecular target: Tb-labeled inactive PDGFRβ (Homo sapiens (Human), UniProt P09619); experiment: PDGFRβ LanthaScreen Assay; type: binding; settings: read-out: PDGFR Lantha IC50
Tb-labeled inactive PDGFRβ, sequence (P09619 33-1106): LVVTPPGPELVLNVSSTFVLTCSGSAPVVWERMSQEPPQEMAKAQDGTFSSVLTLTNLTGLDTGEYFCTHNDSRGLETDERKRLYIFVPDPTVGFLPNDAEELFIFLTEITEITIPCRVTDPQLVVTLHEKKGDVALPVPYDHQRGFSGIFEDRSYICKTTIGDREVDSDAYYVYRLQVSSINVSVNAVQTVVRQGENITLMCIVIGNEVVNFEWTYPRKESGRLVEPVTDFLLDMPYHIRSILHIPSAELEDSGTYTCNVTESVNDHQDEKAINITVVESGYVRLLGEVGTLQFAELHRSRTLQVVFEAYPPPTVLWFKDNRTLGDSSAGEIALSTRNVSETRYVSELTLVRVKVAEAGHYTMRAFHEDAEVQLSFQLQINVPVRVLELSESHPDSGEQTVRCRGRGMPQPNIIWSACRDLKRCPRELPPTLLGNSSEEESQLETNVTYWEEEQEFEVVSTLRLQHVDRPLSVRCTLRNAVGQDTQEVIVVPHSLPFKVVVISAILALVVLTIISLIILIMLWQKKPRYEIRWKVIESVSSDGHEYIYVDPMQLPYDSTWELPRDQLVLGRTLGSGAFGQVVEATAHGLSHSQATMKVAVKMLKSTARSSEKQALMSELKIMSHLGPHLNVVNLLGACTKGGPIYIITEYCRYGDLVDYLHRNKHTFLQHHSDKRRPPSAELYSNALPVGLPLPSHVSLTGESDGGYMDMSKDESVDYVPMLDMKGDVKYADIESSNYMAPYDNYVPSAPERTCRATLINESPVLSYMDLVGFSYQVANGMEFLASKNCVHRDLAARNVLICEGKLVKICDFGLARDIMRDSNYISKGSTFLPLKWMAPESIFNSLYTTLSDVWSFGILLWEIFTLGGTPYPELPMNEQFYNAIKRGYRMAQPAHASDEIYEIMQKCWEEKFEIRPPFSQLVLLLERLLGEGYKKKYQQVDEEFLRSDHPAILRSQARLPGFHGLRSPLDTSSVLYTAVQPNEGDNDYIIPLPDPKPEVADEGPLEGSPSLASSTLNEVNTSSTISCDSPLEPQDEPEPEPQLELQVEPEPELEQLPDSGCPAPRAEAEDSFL

VEGFR2, unphosphorylated, sequence (P35968 20-1356): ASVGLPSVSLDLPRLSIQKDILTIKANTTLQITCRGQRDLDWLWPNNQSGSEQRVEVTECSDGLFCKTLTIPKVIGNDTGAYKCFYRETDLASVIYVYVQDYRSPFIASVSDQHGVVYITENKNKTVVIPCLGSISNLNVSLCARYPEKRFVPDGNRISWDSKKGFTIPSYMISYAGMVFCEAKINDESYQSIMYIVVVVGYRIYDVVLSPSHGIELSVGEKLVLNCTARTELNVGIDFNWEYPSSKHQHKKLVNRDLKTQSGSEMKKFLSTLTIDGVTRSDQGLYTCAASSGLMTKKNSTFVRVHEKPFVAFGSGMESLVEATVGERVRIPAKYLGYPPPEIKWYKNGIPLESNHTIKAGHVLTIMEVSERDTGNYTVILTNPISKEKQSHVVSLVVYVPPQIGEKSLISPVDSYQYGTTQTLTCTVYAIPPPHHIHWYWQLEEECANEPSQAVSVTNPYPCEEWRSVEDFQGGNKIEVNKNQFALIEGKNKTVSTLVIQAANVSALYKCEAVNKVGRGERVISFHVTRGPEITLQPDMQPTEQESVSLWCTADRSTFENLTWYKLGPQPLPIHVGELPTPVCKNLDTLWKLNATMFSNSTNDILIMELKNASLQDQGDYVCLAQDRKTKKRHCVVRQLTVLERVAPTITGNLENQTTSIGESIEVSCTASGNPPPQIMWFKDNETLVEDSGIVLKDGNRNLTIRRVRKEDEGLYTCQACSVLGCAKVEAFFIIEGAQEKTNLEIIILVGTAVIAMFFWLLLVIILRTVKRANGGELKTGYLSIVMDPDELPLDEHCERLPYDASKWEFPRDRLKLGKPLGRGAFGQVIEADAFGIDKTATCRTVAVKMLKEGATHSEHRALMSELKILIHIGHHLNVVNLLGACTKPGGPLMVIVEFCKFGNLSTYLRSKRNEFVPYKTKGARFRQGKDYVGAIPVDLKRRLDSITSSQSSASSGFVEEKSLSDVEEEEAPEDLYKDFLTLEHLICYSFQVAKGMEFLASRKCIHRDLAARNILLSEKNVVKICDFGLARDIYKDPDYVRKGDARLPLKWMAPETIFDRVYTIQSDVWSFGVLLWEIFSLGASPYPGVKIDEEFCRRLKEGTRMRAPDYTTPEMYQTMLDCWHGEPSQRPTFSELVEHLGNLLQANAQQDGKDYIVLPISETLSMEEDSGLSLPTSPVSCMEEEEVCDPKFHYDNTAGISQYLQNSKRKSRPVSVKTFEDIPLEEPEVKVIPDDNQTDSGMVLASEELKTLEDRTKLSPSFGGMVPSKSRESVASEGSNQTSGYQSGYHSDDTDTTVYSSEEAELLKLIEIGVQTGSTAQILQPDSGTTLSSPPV

SMILES	IC50 (VEGFR2, unphosphorylated)	IC50 [1]
Cc1ncc(C(=O)NCCN2CCCC2(C)C)cc1NC(=O)c1cnn2cc(-c3cnn(C)c3)sc12 [Example 8, N-(5-((2-(2,2-dimethylpyrrolidin-1-yl)ethyl)carbamoyl)-2-methylpyridin-3-yl)-2-(1-methyl-1H-pyrazol-4-yl)pyrazolo[5,1-b]thiazole-7-carboxamide]	> 10000 nM	4.7 nM
COCCn1cc(-c2cn3ncc(C(=O)Nc4cc(C(=O)NCCN5CCC(F)(F)C5)cnc4C)c3s2)cn1 [Example 167, N-(5-((2-(3,3-difluoropyrrolidin-1-yl)ethyl)carbamoyl)-2-methylpyridin-3-yl)-2-(1-(2-methoxyethyl)-1H-pyrazol-4-yl)pyrazolo[5,1-b]thiazole-7-carboxamide]	> 7500 nM	4.2 nM
Cc1ncc(C(=O)NCCN2CCC3(CC3)C2)cc1NC(=O)c1cnn2cc(-c3cn(C)cn3)sc12 [Example 162, N-(5-((2-(5-azaspiro[2.4]heptan-5-yl)ethyl)carbamoyl)-2-methylpyridin-3-yl)-2-(1-methyl-1H-imidazol-4-yl)pyrazolo[5,1-b]thiazole-7-carboxamide]	> 7500 nM	7.7 nM
Cc1ncc(C(=O)NCCN2CCCC23COC3)cc1NC(=O)c1cnn2cc(-c3cnn(C)c3)sc12 [Example 114, N-(5-((2-(2-oxa-5-azaspiro[3.4]octan-5-yl)ethyl)carbamoyl)-2-methylpyridin-3-yl)-2-(1-methyl-1H-pyrazol-4-yl)pyrazolo[5,1-b]thiazole-7-carboxamide]	> 7500 nM	4.6 nM
Cc1ncc(C(=O)NCCN2C3CCC2CC3)cc1NC(=O)c1cnn2cc(-c3cnn(C)c3C)sc12 [Example 172, N-(5-((2-(7-azabicyclo[2.2.1]heptan-7-yl)ethyl)carbamoyl)-2-methylpyridin-3-yl)-2-(1,5-dimethyl-1H-pyrazol-4-yl)pyrazolo[5,1-b]thiazole-7-carboxamide]	> 7500 nM	3 nM
Cc1ncc(NC(=O)CCN2CC(C)(C)C2)cc1NC(=O)c1cnn2cc(-c3cnn(C)c3)sc12 [Example 96, N-(5-(3-(3,3-dimethylazetidin-1-yl)propanamido)-2-methylpyridin-3-yl)-2-(1-methyl-1H-pyrazol-4-yl)pyrazolo[5,1-b]thiazole-7-carboxamide]	> 7500 nM	28.4 nM
Cc1ncc(C(=O)NCCN2CC(F)(F)C2)cc1NC(=O)c1cnn2cc(-c3ccncc3)sc12 [Example 152, N-(5-((2-(3,3-difluoroazetidin-1-yl)ethyl)carbamoyl)-2-methylpyridin-3-yl)-2-(pyridin-4-yl)pyrazolo[5,1-b]thiazole-7-carboxamide]	> 7500 nM	12.4 nM
Cc1ncc(C(=O)NCCN2CCCC2(C)C)cc1NC(=O)c1cnn2cc(-c3cnn(CCO)c3)sc12 [Example 140, N-(5-((2-(2,2-dimethylpyrrolidin-1-yl)ethyl)carbamoyl)-2-methylpyridin-3-yl)-2-(1-(2-hydroxyethyl)-1H-pyrazol-4-yl)pyrazolo[5,1-b]thiazole-7-carboxamide]	> 7500 nM	4.9 nM
COCCn1nc(C)c(-c2cn3ncc(C(=O)Nc4cc(NC(=O)CCN5CC6CCC(C5)O6)cnc4C)c3s2)c1C [Example 102, N-(5-(3-(8-oxa-3-azabicyclo[3.2.1]octan-3-yl)propanamido)-2-methylpyridin-3-yl)-2-(1-(2-methoxyethyl)-3,5-dimethyl-1H-pyrazol-4-yl)pyrazolo[5,1-b]thiazole-7-carboxamide]	> 7500 nM	1 nM
Cc1ncc(NC(=O)CCN2CCCC2(C)C)cc1NC(=O)c1cnn2cc(-c3ccnn3C)sc12 [Example 11, N-(5-(3-(2,2-dimethylpyrrolidin-1-yl)propanamido)-2-methyl-pyridin-3-yl)-2-(1-methyl-1H-pyrazol-5-yl)pyrazolo[5,1-b]thiazole-7-carboxamide]	> 7500 nM	5 nM
Cc1ncc(C(=O)NCCN2CCC(F)(F)CC2)cc1NC(=O)c1cnn2cc(-c3cnn(C)c3)sc12 [Example 119, N-(5-((2-(4,4-difluoropiperidin-1-yl)ethyl)carbamoyl)-2-methylpyridin-3-yl)-2-(1-methyl-1H-pyrazol-4-yl)pyrazolo[5,1-b]thiazole-7-carboxamide]	> 7500 nM	2 nM
Cc1ncc(C(=O)NCCN2C3CCCC2CCC3)cc1NC(=O)c1cnn2cc(-c3cnn(C)c3)sc12 [Example 4, N-(5-((2-(9-azabicyclo[3.3.1]nonan-9-yl)ethyl)carbamoyl)-2-methylpyridin-3-yl)-2-(1-methyl-1H-pyrazol-4-yl)pyrazolo[5,1-b]thiazole-7-carboxamide]	> 7500 nM	2.3 nM
Cc1ncc(C(=O)NCCN2CCC(F)(F)CC2)cc1NC(=O)c1cnn2cc(-c3ccncc3)sc12 [Example 154, N-(5-((2-(4,4-difluoropiperidin-1-yl)ethyl)carbamoyl)-2-methylpyridin-3-yl)-2-(pyridin-4-yl)pyrazolo[5,1-b]thiazole-7-carboxamide]	> 7500 nM	2.4 nM
Cc1ncc(C(=O)NCCN2CC3(CCC3)C2)cc1NC(=O)c1cnn2cc(-c3cnn(C)c3)sc12 [Example 124, N-(5-((2-(2-azaspiro[3.3]heptan-2-yl)ethyl)carbamoyl)-2-methylpyridin-3-yl)-2-(1-methyl-1H-pyrazol-4-yl)pyrazolo[5,1-b]thiazole-7-carboxamide]	> 7500 nM	19.6 nM
Cc1ncc(NC(=O)CCN2CCC3(CC3)C2)cc1NC(=O)c1cnn2cc(-c3cnn(C)c3)sc12 [Example 104, N-(5-(3-(5-azaspiro[2.4]heptan-5-yl)propanamido)-2-methylpyridin-3-yl)-2-(1-methyl-1H-pyrazol-4-yl)pyrazolo[5,1-b]thiazole-7-carboxamide]	> 7500 nM	9.8 nM
COCCN(CCNC(=O)c1cnc(C)c(NC(=O)c2cnn3cc(-c4cnn(C)c4)sc23)c1)C1CCC1 [Example 115, N-(5-((2-(cyclobutyl(2-methoxyethyl)amino)ethyl)carbamoyl)-2-methylpyridin-3-yl)-2-(1-methyl-1H-pyrazol-4-yl)pyrazolo[5,1-b]thiazole-7-carboxamide]	> 7500 nM	4.7 nM
COCCN(CCNC(=O)c1cnc(C)c(NC(=O)c2cnn3cc(-c4cnn(C)c4)sc23)c1)CCOC [Example 128, N-(5-((2-(bis(2-methoxyethyl)amino)ethyl)carbamoyl)-2-methylpyridin-3-yl)-2-(1-methyl-1H-pyrazol-4-yl)pyrazolo[5,1-b]thiazole-7-carboxamide]	> 7500 nM	18.3 nM
Cc1ncc(C(=O)NCCN2CCCC2(C)C)cc1NC(=O)c1cnn2cc(-c3cn(C)nc3C)sc12 [Example 174, 2-(1,3-dimethyl-1H-pyrazol-4-yl)-N-(5-((2-(2,2-dimethylpyrrolidin-1-yl)ethyl)carbamoyl)-2-methylpyridin-3-yl)pyrazolo[5,1-b]thiazole-7-carboxamide]	> 7500 nM	2.5 nM
Cc1ncc(NC(=O)NCC2CCN(C)CC2)cc1NC(=O)c1cnn2cc(-c3cnn(C)c3)sc12 [Example 107, 2-(1-methyl-1H-pyrazol-4-yl)-N-(2-methyl-5-(3-((1-methylpiperidin-4-yl)methyl)ureido)pyridin-3-yl)pyrazolo[5,1-b]thiazole-7-carboxamide]	> 7500 nM	582 nM
Cc1ncc(C(=O)NCCN2CCCOCC2)cc1NC(=O)c1cnn2cc(-c3cnn(C)c3)sc12 [Example 121, N-(5-((2-(1,4-oxazepan-4-yl)ethyl)carbamoyl)-2-methylpyridin-3-yl)-2-(1-methyl-1H-pyrazol-4-yl)pyrazolo[5,1-b]thiazole-7-carboxamide]	> 7500 nM	13.1 nM
Cc1ncc(C(=O)NCCN2CC3CCC2CC3)cc1NC(=O)c1cnn2cc(-c3cnn(CC#N)c3)sc12 [Example 151, N-(5-((2-(2-azabicyclo[2.2.2]octan-2-yl)ethyl)carbamoyl)-2-methylpyridin-3-yl)-2-(1-(cyanomethyl)-1H-pyrazol-4-yl)pyrazolo[5,1-b]thiazole-7-carboxamide]	> 7500 nM	2.8 nM
Cc1ncc(C(=O)NCCN2CCCC(F)(F)C2)cc1NC(=O)c1cnn2cc(-c3cnn(C)c3)sc12 [Example 123, N-(5-((2-(3,3-difluoropiperidin-1-yl)ethyl)carbamoyl)-2-methylpyridin-3-yl)-2-(1-methyl-1H-pyrazol-4-yl)pyrazolo[5,1-b]thiazole-7-carboxamide]	> 7500 nM	2.7 nM
Cc1ncc(C(=O)NCCN2CC3CCC2CC3)cc1NC(=O)c1cnn2cc(-c3cnn(C)c3C)sc12 [Example 171, N-(5-((2-(2-azabicyclo[2.2.2]octan-2-yl)ethyl)carbamoyl)-2-methylpyridin-3-yl)-2-(1,5-dimethyl-1H-pyrazol-4-yl)pyrazolo[5,1-b]thiazole-7-carboxamide]	> 7500 nM	2.6 nM
Cc1ncc(C(=O)NCCN2CCCC2(C)C)cc1NC(=O)c1cnn2cc(-c3ccn(C)n3)sc12 [Example 9, N-(5-((2-(2,2-dimethylpyrrolidin-1-yl)ethyl)carbamoyl)-2-methylpyridin-3-yl)-2-(1-methyl-1H-pyrazol-3-yl)pyrazolo[5,1-b]thiazole-7-carboxamide]	> 7500 nM	3.5 nM
Cc1ncc(C(=O)NCCN2C3CCC2COC3)cc1NC(=O)c1cnn2cc(-c3cnn(C)c3)sc12 [Example 122, N-(5-((2-(3-oxa-8-azabicyclo[3.2.1]octan-8-yl)ethyl)carbamoyl)-2-methylpyridin-3-yl)-2-(1-methyl-1H-pyrazol-4-yl)pyrazolo[5,1-b]thiazole-7-carboxamide]	> 7500 nM	2.8 nM
COCCn1cc(-c2cn3ncc(C(=O)Nc4cc(NC(=O)CCN5CCC56CCC6)cnc4C)c3s2)cn1 [Example 95, N-(5-(3-(1-azaspiro[3.3]heptan-1-yl)propanamido)-2-methylpyridin-3-yl)-2-(1-(2-methoxyethyl)-1H-pyrazol-4-yl)pyrazolo[5,1-b]thiazole-7-carboxamide]	> 7500 nM	5.1 nM

— patent publication US20240109917A1 (ACTELION PHARMACEUTICALS LTD, priority 2020, published 2024)
